Reference: patent US7772255B2, “Method of treating tumors with azaxanthones” (Supratek Pharma, Inc., priority 2005, dated 2010)

Columns and labels:
[1] = Chemical stability of Amlexanox sodium salt solution (HPLC); assay type: physicochemical; details: 20 mg Amlexanox sodium salt in 2 mL Tris buffer pH 7.2; 0.05 molar equivalent of the listed compound; 72 hours, ambient light, access to air; HPLC peak area
Description: 20 mg of crystalline Amlexanox sodium salt was dissolved in a clear glass test tube in 2 mL of Tris buffer, pH 7.2. For each of the stabilizing compounds listed in the Table below, 0.05 molar equivalent of the compound was added to the solution, mixed until dissolved, and left under ambient light, and with access to the air. Concentration of Amlexanox in the sample was determined by HPLC right after preparation, and after 72 hours. The chemical stability of Amlexanox was evaluated by comparison of area under the peak of amlexanox from the two analyses.

CSML100 cells = assay: S100A4-positive lung metastasis tumor model, alone or in combinations (Example 25); assay type: in vivo, mouse; details: CSML100 i.v. in A/J mice, mean±SEM
Description: Amlexanox solution for injections was prepared according to the Example 4. […] The animals were then divided randomly into 9 groups (n=9 except for control group): 1) intact control (n=13, saline); 2) Amlexanox (i.v. 100 mg/kg); 3) Amlexanox ([…]. 3 mg/kg); 5) Amlexanox ([…]. […] 10 mg/kg). […] The treatments were started on the day following the tumor cell implantation and continued for 10 consecutive days. […] The animal body weight was recorded as an index of treatment toxicity during the experiment. […] The data are expressed as mean±SEM for the number of metastatic sites on the lung surface.

B16F10/DX cells = assay: B16 experimental metastasis model (Example 26); assay type: in vivo, mouse; details: B16F10/DX i.v. in C57BL/6 mice; TPT 2.0 mg/kg i.v. on day 1, 4, and 7; mean±SEM
Description: Amlexanox solution for injections was prepared according to the Example 4. B16F10/DX cell (2.0×10^5 cells per animal) were inoculated intravenously in female C57BL//6 mice (6-7 weeks old) and animals were then divided randomly into 4 groups (n=9 except for control group): 1) intact control (n=12, saline); 2) Amlexanox (100 mg/kg, daily p.o. administration); 3) TPT (2.0 mg/kg i.v. administration on day 1, 4, and 7); 5) Amlexanox (daily p.o. 100 mg/kg)+TPT (i.v. 2.0 mg/kg on day 1, 4, and 7). Intact control received oral administration with 10 ml/kg (volume/body weight) of saline, while Amlexanox was administrated orally and daily with a dose of 100 mg/kg in a volume of 10 ml/kg. The treatments were started from the day following the tumor cell implantation until the end of the protocol. However, TPT was administrated intravenously only on day 1, 4, and 7 after tumor implantation. The animal body weight was recorded as an index of treatment toxicity during the experiment.
The data in Table show metastasis formation in the lung in the mice implanted with B16F10/DX cells. The data are expressed as mean±SEM for the number of metastatic sites on the lung surface.

Structure (SMILES)	Retained Amlexnox [1] [%]	also measured
Cn1c(=O)c2c(ncn2C)n(C)c1=O [Caffeine]	96.8	
CC[C@@]1(O)C(=O)OCc2c1cc1n(c2=O)Cc2cc3c(CN(C)C)c(O)ccc3nc2-1 [TPT, topotecan]		Lung Metastasis Number per Animal (CSML100 cells; TPT i.v. 3 mg/kg on day 1, 4, 7): 6.20 ± 1.32; Lung Metastasis Number per Animal (B16F10/DX cells): 88.0 ± 8.79
COc1cccc2c1C(=O)c1c(O)c3c(c(O)c1C2=O)C[C@@](O)(C(=O)CO)C[C@@H]3O[C@H]1C[C@H](N)[C@H](O)[C@H](C)O1 [Dox, doxorubicin]		Lung Metastasis Number per Animal (CSML100 cells; Dox i.v. 3 mg/kg on day 1, 4, 7): 15.6 ± 2.66

Further lines, with some results ahead:

Retained Amlexnox [1] [%]	Structure (SMILES)	also measured
99.5	O=C1O[C@H]([C@@H](O)CO)C(O)=C1O [Ascorbic acid]	
99.7	CCCOC(=O)c1cc(O)c(O)c(O)c1 [Propyl galate]	
93.1	COC(=O)c1ccc(O)cc1 [Methyl 4-hydroxybenzoate]	
99.6	Cc1occc(=O)c1O [Maltol]	
